Test results as given in article PMC9898191 (Nature chemical biology, 2022).
Values belong to the molecule of their own block, whether it stands above or below them.

Columns and labels:
[1] = system: PM translocation of EGFP-Syk WT in Syk−/− DT40 cells; experiment: Subcellular localization of EGFP-Syk WT in IgM-stimulated Syk-null DT40 cells; format: cell-based; conditions: 10 nM overnight
Syk in MV4-11 cells = Syk in MV4-11 cells (Homo sapiens, UniProt P43405); experiment: WC36B-streptavidin pull down assay with immunoblotting; format: binding
[2] = system: ZAP-70 phosphorylation in Jurkat T cells; experiment: Western blot of ZAP-70 phosphorylation in Jurkat T cells; format: cell-based; conditions: 5 μM overnight, OKT3 stimulated
[3] = system: phosphorylation of Syk, ERK1/2 and STAT3/5 in entospletinib-resistant MV4-11 cells; conditions: 5 μM
HL60 cells = experiment: XTT cell proliferation assay, HL-60 cells; format: cell-based
[4] = system: phosphorylation of ERK1/2 and STAT3/5 in RAS-mutated HL60 cells; experiment: Western blot of IgG2-stimulated phosphorylation in HL-60 cells; format: cell-based; conditions: 5 μM
[5] = system: WC36B-binding cellular proteins of MV4-11 cells; experiment: Mass spectrometry-based proteomics of WC36B-binding cellular proteins; design: species or system human; conditions: biotin as negative control

SMILES: CS(=O)(=O)N1CCN(Cc2cc3nc(-c4cccc5[nH]ncc45)nc(N4CCOCC4)c3s2)CC1 [GDC-0941]
PM translocation of EGFP-Syk WT [1]: greatly suppressed

SMILES: Nc1ncnc2c1ncn2[C@@H]1O[C@H](COP(=O)(O)OP(=O)(O)OP(=O)(O)O)[C@@H](O)[C@H]1O [ATP]
competition with WC36B for Syk binding (Syk in MV4-11 cells; WC36 10 μM, entospletinib 10 μM, ATP 1 mM): only WC36 was able to compete

SMILES: c1cn2cc(-c3ccc4cn[nH]c4c3)nc(Nc3ccc(N4CCOCC4)cc3)c2n1 [entospletinib]
inhibition of ZAP-70 phosphorylation [2]: significantly inhibited
inhibition of phosphorylation of Syk, ERK1/2 and STAT3/5 [3]: could not inhibit phosphorylation
suppression of proliferation (XTT assay) (HL60 cells): ineffective
suppression of phosphorylation of ERK1/2 and STAT3/5 [4]: could not suppress phosphorylation

capture of Syk by streptavidin beads pulldown (Syk in MV4-11 cells; MV4-11 cells, 5 μM, 24 h): targets Syk
SMILES: [N-]=[N+]=C(C(=O)NCCNC(=O)CCCC[C@H]1SC[C@H]2NC(=O)N[C@H]21)C(Nc1ncccn1)c1c[nH]c2ccccc12 (some centres unmarked) [WC36B]
proteins captured compared with biotin control [5]: Syk is the single major protein
